Results as given in ChEMBL document CHEMBL1961794, “Regulation of circadian behaviour and metabolism by synthetic REV-ERB agonists” (Nature, 2012).

Target: T1, Nuclear receptor subfamily 1 group D member 1 (Homo sapiens, UniProt P20393)
T1 sequence (P20393 whole entry): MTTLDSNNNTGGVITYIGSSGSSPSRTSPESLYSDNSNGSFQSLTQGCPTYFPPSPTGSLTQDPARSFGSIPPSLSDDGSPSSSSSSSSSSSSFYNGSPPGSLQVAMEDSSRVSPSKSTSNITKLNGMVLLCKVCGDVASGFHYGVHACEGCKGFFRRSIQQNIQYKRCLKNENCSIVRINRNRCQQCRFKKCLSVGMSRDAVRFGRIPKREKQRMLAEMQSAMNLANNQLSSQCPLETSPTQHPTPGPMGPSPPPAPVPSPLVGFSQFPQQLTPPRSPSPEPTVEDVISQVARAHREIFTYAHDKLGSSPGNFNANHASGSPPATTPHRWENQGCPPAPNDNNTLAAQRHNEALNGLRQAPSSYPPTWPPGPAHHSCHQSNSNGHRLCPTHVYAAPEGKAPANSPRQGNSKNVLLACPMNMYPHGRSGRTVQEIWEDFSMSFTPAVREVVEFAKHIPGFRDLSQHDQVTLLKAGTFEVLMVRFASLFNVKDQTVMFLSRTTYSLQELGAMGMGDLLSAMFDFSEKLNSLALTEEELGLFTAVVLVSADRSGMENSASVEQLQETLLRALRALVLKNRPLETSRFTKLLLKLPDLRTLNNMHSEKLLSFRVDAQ
Assay: Increased REV-ERB-alpha LBD dependent repressor activity in HEK293 cell reporter assay
Assay type: cell-based
Conditions: hek293; call rule not given here

IC50: Not Active
Compound: CC(C)(C)OC(=O)CN(Cc1ccc(Cl)cc1)Cc1ccc([N+](=O)[O-])s1 [GSK-4112]
